Experimental data from patent US8802702B2, “Compounds for reducing drug resistance and uses thereof” (The General Hospital Corporation, priority 2009, dated 2014).
“Also recorded” adds a separate entry of the source. Where two headings read alike, the source gives them in different places.

Legend:
[1] = system: MDR cell lines where MDR1 (Pgp1) is highly expressed; assay: Reversal of chemoresistance across panel of MDR cell lines with various anti-cancer agents
Experimental: Screening conditions in drug resistant cells were optimized in 96-well plates for optimal growth conditions, small molecular compound and drug concentration and assay times prior to screening. On day 1, drug resistant cells were seeded at 2×10^4 cells/well on 96-well plates and labeled with plates A, B, and incubated for 24 hr at 37° C. On day 2, plate A was treated with a test compound at 1 μM to each well without paclitaxel; Plate B was treated with both a test compound and paclitaxe at specifically prescribed concentrations. From day 4 to day 6, fresh medium was replaced with necessity as described above and evaluated for cytotoxicity under the microscope. On Day 6, the number of viable cells was evaluated for cytotoxicity in any wells under the microscope manually and final results were determined via […]96™ AQ One Solution Cell Cytotoxicity Assay (Promega, Madison, Wis.) by a SPECTRAIVIAX.™ Microplate Spectrophotometer (Molecular Devices, Sunnyvale, Calif.).
The general format was designed for screening the small molecular compound library and identifying novel drug resistant inhibitor. These include evaluation of each small molecular compound through a well studied multidrug resistant cell line SKOV-3TR. The experiments were conducted in two control plates (A and B) and one experimental plate (C) to permit plate-to-plate comparisons (FIG. 1). The control plates (plate A and B) were used to evaluate cytotoxicity of paclitaxel and small molecular compound itself, and to exclude compound that were lethal to the cells in the absence of chemotherapy drug. […] because the goal of this study was to identify small molecular compound that can reverse drug resistance and not to determine cell toxicity. […] Small molecular compound that were associated with cell survival in plate A and plate B and death in plate C were identified as “hits” and selected for further study.
Furthermore, other cell lines with non-Pgp1 mediated MDR mechanisms were tested (H69/AR cells that express MRP1, but not Pgp1, and MCF-7 MX cells that express BCRP, but not Pgp1) to evaluate the specificity of NSC23925.

[2] = system: SKOV-3 and SKOV-3TR cells; assay: Cytotoxicity of NSC23925 alone (MTT assay), SKOV-3/SKOV-3TR; type: cell-based, human
Experimental: Drug cytotoxicity was determined by MTT assay. […] Cells were treated with the NSC23925 in RPMI1640 complete media at the indicated concentrations. The relative sensitivity of each line to NSC23925 was determined by MTT assay. A: Nonspecific toxicity of NSC23925 on SKOV3 vs SKOV-3TR. B: Nonspecific toxicity of NSC23925 on OVCAR8 vs OVCAR8TR. Drug cytotoxicity was assessed in vitro using the MTT assay. SKOV-3 and SKOV-3TR cells were used herein. Briefly, 2×10^3 cells per well were plated in 96-well plates in culture medium (RPMI 1640 supplemented with 10% fetal bovine serum and penicillin/streptomycin) containing increasing concentrations of drug. […] The resulting formazan product was dissolved with acid-isopropanol and the absorbance at a wavelength of 490 nm (A490) was read on a SPECTRAmax® Microplate Spectrophotometer (Molecular Devices, Sunnyvale, Calif.). The absorbance values were normalized by assigning the value of the control line in the medium without drug to 1.0 and the value of the no cell control to 0. Experiments were performed in triplicate.

[3] = target: purified recombinant human Pgp1 membrane protein (Homo sapiens, UniProt P08183)
purified recombinant human Pgp1 membrane protein, sequence (P08183 whole entry): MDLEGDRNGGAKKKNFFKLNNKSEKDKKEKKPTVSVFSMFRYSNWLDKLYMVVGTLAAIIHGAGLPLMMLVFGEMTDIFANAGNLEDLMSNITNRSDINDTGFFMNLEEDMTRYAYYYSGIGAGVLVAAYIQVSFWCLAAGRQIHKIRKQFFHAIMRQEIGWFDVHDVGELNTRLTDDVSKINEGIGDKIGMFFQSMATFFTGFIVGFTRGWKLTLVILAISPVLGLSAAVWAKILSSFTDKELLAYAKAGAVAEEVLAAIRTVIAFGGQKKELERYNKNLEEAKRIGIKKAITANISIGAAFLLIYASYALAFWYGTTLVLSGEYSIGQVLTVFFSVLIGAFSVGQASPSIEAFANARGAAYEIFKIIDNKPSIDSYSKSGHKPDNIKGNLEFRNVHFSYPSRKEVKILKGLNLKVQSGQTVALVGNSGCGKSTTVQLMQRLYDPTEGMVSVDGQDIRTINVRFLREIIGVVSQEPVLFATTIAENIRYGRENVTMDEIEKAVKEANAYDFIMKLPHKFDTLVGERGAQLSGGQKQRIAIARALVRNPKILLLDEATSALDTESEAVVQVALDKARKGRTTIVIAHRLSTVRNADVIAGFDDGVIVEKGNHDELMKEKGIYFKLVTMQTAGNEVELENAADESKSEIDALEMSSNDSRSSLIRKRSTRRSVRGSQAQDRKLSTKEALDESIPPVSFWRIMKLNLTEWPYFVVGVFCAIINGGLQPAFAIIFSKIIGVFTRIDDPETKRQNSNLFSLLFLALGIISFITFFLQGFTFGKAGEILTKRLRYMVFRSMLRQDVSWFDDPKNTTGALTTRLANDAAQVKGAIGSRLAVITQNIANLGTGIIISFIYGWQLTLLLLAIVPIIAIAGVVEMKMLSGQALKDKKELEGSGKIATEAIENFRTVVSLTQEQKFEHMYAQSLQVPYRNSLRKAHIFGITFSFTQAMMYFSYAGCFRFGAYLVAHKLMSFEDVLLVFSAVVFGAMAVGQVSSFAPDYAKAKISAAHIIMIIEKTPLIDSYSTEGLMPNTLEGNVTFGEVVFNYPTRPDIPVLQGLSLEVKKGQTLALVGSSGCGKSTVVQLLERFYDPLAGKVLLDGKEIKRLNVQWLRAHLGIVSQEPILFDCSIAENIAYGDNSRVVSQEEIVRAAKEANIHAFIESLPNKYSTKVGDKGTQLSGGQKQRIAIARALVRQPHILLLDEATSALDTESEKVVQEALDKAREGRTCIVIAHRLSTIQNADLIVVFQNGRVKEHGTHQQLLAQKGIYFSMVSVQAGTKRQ
Experimental: Luminescence was read on a BMG LABTECH Polarstar Optima Luminometer. The decrease in luminescence of untreated samples compared to samples plus Na3VO4(ARLUbasal) represents basal Pgp1 ATPase activity. […] E: Effect of NSC23925 on expression of Pgp1 in paclitaxel resistant cells. The paclitaxel resistant cell line SKOV-3TR was treated with different concentration of NSC23925 for 48 h. Equal amounts (20 μg protein) of total cell lysates were used for each sample. Pgp1 expression was determined by Western blot as described in the Examples section below.
The Pgp-Glo™ Assay Systems (Promega) provide the necessary reagents for performing luminescent P-glycoprotein (Pgp)-ATPase assays. The ATPase assay provides a rapid, […], compound-independent measure of the concentration-dependence of any interaction of a drug with Ppg1. […] Luminescence was read on a BMG LABTECH Polarstar Optima Luminometer. The decrease in luminescence of NT samples compared to samples plus Na3VO4 (ΔRLUbasal) represents basal Pgp-ATPase activity.
Pgp-ATPase assay is a valuable screening tool for determining if a drug interacts with Pgp.

OVCAR8TR cells = assay: Reversal of drug resistance, cytotoxicity (MTT) assay in OVCAR8TR; type: cell-based, human; settings: for IC50: Homo sapiens
[4] = value = anti-cancer drug used in conjunction

For `COc1ccc(-c2cc(C(O)C3CCCCN3)c3ccccc3n2)cc1` (stereo not drawn) [NSC23925, (2-(4-methoxyphenyl)quinolin-4-yl)(piperidin-2-yl)methanol], the “Reversal of chemoresistance in tumor types where MDR1 is highly expressed” value ([1]; SKOV-3TR, OVCAR8TR, MCF-7TR, MESSA/Dx5, KHOS R2, U-2OSDR) was “reverses chemoresistance”, the “Effect on cytotoxicity of cisplatin and methotrexate” value ([1]; agents unaffected by MDR1 mechanisms) was “did not alter the cytotoxicity” and the “Reverse Drug Resistance by NSC23925: Decreased drug resistance (to the anti-cancer drug named in the cell)” value [1, 4] was “Vincristine; also recorded: Gemcitabine; also recorded: ET-743; also recorded: PM00104; also recorded: Paclitaxel; also recorded: Docetaxel; also recorded: Doxorubicin; also recorded: Daunorubicin”. The “Reverse Drug Resistance by NSC23925: No effect (on the anti-cancer drug named in the cell)” value [1, 4] was “Cisplatin; also recorded: Carboplatin; also recorded: Topotecan; also recorded: Methotrexate”, the “Reversal of chemoresistance in conjunction with anti-cancer agents” value ([1]; with paclitaxel, docetaxel, doxorubicin, daunorubicin, gemcitabine, vincristine, ET-743 or PM00104) was “significant reversal of chemoresistance” and the “Cytotoxic effect of NSC23925 alone in parental SKOV-3” value ([2]; <5-10 μM NSC23925 alone, cells lack Pgp1) was “no cytotoxic effect”. The IC50 ([2]; Homo sapiens, SKOV-3/SKOV-3TR, single agent, read-out: IC50 for NSC23925 (proliferation)) was 8 µM, the “Effect of verapamil on the cytotoxic effect of NSC23925” value ([2]; Pgp1-overexpressing SKOV-3TR cells, 72 hours, MTT) was “did not influence the cytotoxic effect” and the “Doses at which NSC23925 by itself is noncytotoxic” value ([2]; both sensitive and resistant cell lines) was “up to 10 μM”. The “Pgp1 transport substrate status” value ([2]; concluded from matched cell line IC50s and verapamil co-treatment) was “not a substrate of Pgp1”, the “Stimulation of Pgp-ATPase activity” value [3] was over 30% and the “fold-reversal of drug resistance, OVCAR8TR” value (“fold-reversal” below) (OVCAR8TR cells; Doxorubicin, add NSC23925 0.1 μM) was “(2.3) fold”. For the same compound, the “fold-reversal” value (OVCAR8TR cells; Doxorubicin, add NSC23925 0.5 μM) was “(5.3) fold”, the “fold-reversal” value (OVCAR8TR cells; Doxorubicin, add NSC23925 1 μM) was “(23) fold” and the “fold-reversal” value (OVCAR8TR cells; ET-743, add NSC23925 0.1 μM) was “(1.2) fold”. The “fold-reversal” value (OVCAR8TR cells; ET-743, add NSC23925 0.5 μM) was “(1.2) fold”, the “fold-reversal” value (OVCAR8TR cells; ET-743, add NSC23925 1 μM) was “(0.9) fold” and the IC50 (OVCAR8TR cells; Doxorubicin, add NSC23925 0.1 μM, read-out: OVCAR8TR IC50 of Doxorubicin) was 12.3 ± 0.36 µM. The IC50 (OVCAR8TR cells; Doxorubicin, add NSC23925 0.5 μM, read-out: OVCAR8TR IC50 of Doxorubicin) was 5.2 ± 0.471 µM, the IC50 (OVCAR8TR cells; Doxorubicin, add NSC23925 1 μM, read-out: OVCAR8TR IC50 of Doxorubicin) was 1.22 ± 0.122 µM and the IC50 (OVCAR8TR cells; ET-743, add NSC23925 0.1 μM, read-out: OVCAR8TR IC50 of ET-743) was 0.005 ± 0.001 µM. It also gave an IC50 (OVCAR8TR cells; ET-743, add NSC23925 0.5 μM, read-out: OVCAR8TR IC50 of ET-743) of 0.005 ± 0.001 µM, an IC50 (OVCAR8TR cells; ET-743, add NSC23925 1 μM, read-out: OVCAR8TR IC50 of ET-743) of 0.007 ± 0.002 µM and an IC50 (OVCAR8TR cells; PM00104, add NSC23925 0.1 μM, read-out: OVCAR8TR IC50 of PM00104) of 0.008 ± 0.002 µM. The IC50 (OVCAR8TR cells; PM00104, add NSC23925 0.5 μM, read-out: OVCAR8TR IC50 of PM00104) was 0.006 ± 0.002 µM, the IC50 (OVCAR8TR cells; PM00104, add NSC23925 1 μM, read-out: OVCAR8TR IC50 of PM00104) was 0.005 ± 0.002 µM and the IC50 (OVCAR8TR cells; Paclitaxel, add NSC23925 0.5 μM, read-out: OVCAR8TR IC50 of Paclitaxel) was 0.072 ± 0.046 µM. The IC50 (OVCAR8TR cells; Paclitaxel, add NSC23925 1 μM, read-out: OVCAR8TR IC50 of Paclitaxel) was 0.028 ± 0.047 µM, the “fold-reversal” value (OVCAR8TR cells; PM00104, add NSC23925 0.1 μM) was “(1) fold” and the “fold-reversal” value (OVCAR8TR cells; PM00104, add NSC23925 0.5 μM) was “(1.3) fold”. The “fold-reversal” value (OVCAR8TR cells; PM00104, add NSC23925 1 μM) was “(1.6) fold”, the “fold-reversal” value (OVCAR8TR cells; Paclitaxel, add NSC23925 0.1 μM) was “(2.7) fold” and the “fold-reversal” value (OVCAR8TR cells; Paclitaxel, add NSC23925 1 μM) was “(12.1) fold”.
